Source: PMC9573605, “Exploring Nitric Oxide (NO)-Releasing Celecoxib Derivatives as Modulators of Radioresponse in Pheochromocytoma Cells” (Molecules, 2022)

Columns and labels:
[1] = Fluorometric NO release assay (Griess assay); assay type: physicochemical; conditions: 24 h, 37 °C, relative to initial molar amount of compound; for thiol-dependent NO release: 2.5 mM cysteine; for spontaneous NO release: absence of cysteine
Procedure: The nitric oxide releasing properties of the nitroester-derivatives 5a–d, 5f, and 6a–d were evaluated using a fluorometric Griess assay in the presence and absence of cysteine to determine thiol-dependent and spontaneous release of nitric oxide (Figure 3).
Nitric oxide release of compounds within 24 h at 37 °C was measured using the fluorometric nitric oxide microplate assay kit ab65327 (Abcam, Cambridge, UK). For measurement of spontaneous release, 1.8 nmol of compounds were incubated in 75 µL Dulbecco’s PBS containing 0.05% v/v residual DMSO and 2.5 mM DTPA (pH = 7.1) for 24 h at 37 °C. Thiol-dependent release was measured accordingly in presence of 2.5 mM cysteine. Two series of nitrate standards were prepared (0.2−1 nmol) in 75 µL incubation buffer, in presence or absence of cysteine, respectively. According to the manufacturer’s instructions, all nitrate content in samples and standards was enzymatically converted into nitrite through incubation with nitrate reductase for 2 h at room temperature, and the resulting nitrite content (total nitric oxide) was determined through reaction with 2,3-diaminonaphthalene followed by measurement of fluorescence intensity at λex/em = 360/450 nm using a microplate reader. Nitrite content in samples was calculated from linear regression of standards and expressed as relative nitric oxide release (%) normalized to the initial molar amount of compound. NONOate served as positive control.
Figure 3 Spontaneous and thiol-dependent NO^• release from NO-COXIBs; measured using fluorometric Griess assay (n = 2); relative release indicates the percentage of soluble nitrogen species (nitrate + nitrite) detected in the incubation buffer after 24 h compared to the initial molar amount of compounds; NO^• release of NONOate (positive control) exceeded the maximum detection limit; data presented as mean ± range.

MPC-HIF2a spheroids = assay: Growth of non-irradiated tumor spheroids; assay type: cell-based, mouse; conditions: 10 µM compound, linear regression between 0 and 9 days
Procedure: As a first pilot study, growth responses of MPC-HIF2α spheroids were investigated after two different radiation treatments such as single-dose external beam irradiation (X-ray) and incubation with [^177Lu]LuCl3, respectively. NO-COXIBs were tested at 10 µM for additional effects on radiation treatments against a vehicle-treated control (w/o) and celecoxib (Ce).
4. Growth-rate of tumor spheroids in the presence of NO -COXIBS without radiation treatment
Compound Diameter growth rate
Table S2. Effects of NO-COXIBs on spheroid growth; diameter growth rates of non-irradiated MPC-HIF2a spheroids in presence of 10 µM of compounds determined from linear regression between 0 and 9 days after treatment start; (w/o) vehicle control treated with DMSO

[2] = test system: MPC-HIF2α tumor spheroids; assay: Spheroid regrowth assay with [177Lu]LuCl3 treatment; assay type: cell-based, mouse; conditions: 10 µM compound with 0.25 MBq [177Lu]LuCl3 for six days; for growth response (spheroid size): compared to controls; for 14-day regrowth probability: controls 50%
From the text: Radionuclide therapy is a fast-evolving treatment modality gaining more importance in treating cancer. For treatment of pheochromocytomas and paragangliomas, in particular, somatostatin type 2 receptor-targeted radionuclide therapy with [^177Lu]Lu-(Tyr^3)octreotate is currently investigated in clinical controlled trials (e.g., NCT04029428, NCT03923257, NCT03206060). To assess the additional effects of NO-COXIBs on the outcome of Lu-177 therapy, a simplified in vitro setup was used here, where MPC-HIF2α tumor spheroids were treated with 10 µM of the compounds and simultaneously 0.25 MBq of [^177Lu]LuCl3 for six days.
Genetically modified mouse pheochromocytoma (MPC) cells expressing a codon-optimized Epas1 gene (encoding HIF2α) were cultured as three-dimensional tumor spheroids as published elsewhere. External X-ray beam radiation treatment and [^177Lu]LuCl3 radionuclide treatment was performed as reported previously with some modifications. In brief, spheroids were irradiated with a 200 kV photon beam using a Maxishot X-ray system equipped with a Y.TU/320-D03 tube (YXLON, Hamburg, Germany), growth of spheroids (n = 6) with diameters between 300−400 µm was measured in response to one fixed radiation dose, 15 Gy for X-ray treatment, and 0.25 MBq/mL of [^177Lu]LuCl3 for radionuclide treatment corresponding to a cumulative dose of approximately 2 Gy delivered for 6 days. The applied radiation doses were selected based on the half-maximal spheroid control doses (SCD50) as previously determined for MPC HIF2α spheroids by us. Spheroids were considered as regrown at 100 µm increase in diameter compared to treatment start or at a diameter growth rate of 15 µm per day. Results are reported as spheroid regrowth probability (%).
Figure 5 Effects of NO-COXIBs on radiation treatments of MPC-HIF2α tumor spheroids. (A) Growth responses to X-ray treatment with a radiation dose of 15 Gy in combination with 10 µM NO-COXIBs added to the medium at indicated time points before or after irradiation. (B) Growth responses to [^177Lu]LuCl3 treatment with an initial activity concentration of 0.25 MBq/mL in combination with NO-COXIBs; log2 fold changes in diameter indicate the number of diameter doublings compared to treatment start; 14-day regrowth probability indicates the fraction of spheroids able to regrow within 14 days after treatment start; (black arrows) time point or duration of radiation treatment; (w/o) vehicle controls are shown as black lines; (Ce) celecoxib.

| Compound | thiol-dependent NO release [1] | spontaneous NO release [1] | Diameter growth rate ± SEM (MPC-HIF2a spheroids) | growth response (spheroid size) [2] | 14-day regrowth probability [2] |
| --- | --- | --- | --- | --- | --- |
| Cc1ccc(-c2c(Cl)c(CO[N+](=O)[O-])nn2-c2ccc(S(C)(=O)=O)cc2)cc1 [5c, {4-Chloro-1-[4-(methylsulfonyl)phenyl]-5-(p-tolyl)-1H-pyrazol-3-yl}methyl nitrate] | 17% | no detectable | 60.4 ± 5.3 µm/day | prevented spheroids from shrinking in size | 60–80% |
| COc1ccc(-c2c(Cl)c(CO[N+](=O)[O-])nn2-c2ccc(S(C)(=O)=O)cc2)cc1 [5d, {4-Chloro-5-(4-methoxyphenyl)-1-[4-(methylsulfonyl)phenyl]-1H-pyrazol-3-yl}methyl nitrate] | 29–53% | 10–22% | 61.2 ± 5.5 µm/day | prevented spheroids from shrinking in size | 60–80% |
| COc1ccc(-c2cc(CO[N+](=O)[O-])nn2-c2ccc(S(N)(=O)=O)cc2)cc1 [5f, [5-(4-Methoxyphenyl)-1-(4-sulfamoylphenyl)-1H-pyrazol-3-yl]methyl nitrate] | 29–53% | 10–22% | 61.4 ± 5.2 µm/day | prevented spheroids from shrinking in size | 60–80% |
| CCC(=O)NS(=O)(=O)c1ccc(-n2nc(CO[N+](=O)[O-])c(Cl)c2-c2ccc(C)cc2)cc1 [6a, {4-Chloro-1-[4-(N-propionylsulfamoyl)phenyl]-5-(p-tolyl)-1H-pyrazol-3-yl}methyl nitrate] | 29–53% | 10–22% | 64.1 ± 6.1 µm/day | prevented spheroids from shrinking in size |  |
| CCC(=O)NS(=O)(=O)c1ccc(-n2nc(CO[N+](=O)[O-])c(Cl)c2-c2ccc(OC)cc2)cc1 [6b, {4-Chloro-5-(4-methoxyphenyl)-1-[4-(N-propionylsulfamoyl)phenyl]-1H-pyrazol-3-yl}methyl nitrate] | 56% | no detectable | 63.1 ± 5.3 µm/day |  | 100% |
| CCC(=O)NS(=O)(=O)c1ccc(-n2nc(CO[N+](=O)[O-])cc2-c2ccc(C)cc2)cc1 [6c, {1-[4-(N-Propionylsulfamoyl)phenyl]-5-(p-tolyl)-1H-pyrazol-3-yl}methyl nitrate] | 40% | 26% | 60.0 ± 5.5 µm/day | prevented spheroids from shrinking in size | 40% |
| CCC(=O)NS(=O)(=O)c1ccc(-n2nc(CO[N+](=O)[O-])cc2-c2ccc(OC)cc2)cc1 [6d, {5-(4-Methoxyphenyl)-1-[4-(N-propionylsulfamoyl)phenyl]-1H-pyrazol-3-yl}methyl nitrate] | 65% | 40% | 63.7 ± 5.9 µm/day | prevented spheroids from shrinking in size | 100% |
